Values of other authors in patent publication US6045829A, “Nanocrystalline formulations of human immunodeficiency virus (HIV) protease inhibitors using cellulosic surface stabilizers” (Elan Pharma International Limited, priority 1997, dated 2000).
Read-outs that look alike come from different tables or passages of the source.

Legend:
[1] = system: HIV reverse transcriptase (RT); settings: for effectiveness in treating HIV infection: in vivo; for side effects: interfere with cellular enzymes similar to the HIV viral enzyme

SMILES: O[C@H](CS)[C@H](O)CS (racemic) [ddT, dithiothreitol]
- effectiveness in treating HIV infection [1]: only modestly effective
- side effects [1]: severe side effects

SMILES: CC(C)c1nc(CN(C)C(=O)N[C@H](C(=O)N[C@@H](Cc2ccccc2)C[C@H](O)[C@H](Cc2ccccc2)NC(=O)OCc2cncs2)C(C)C)cs1 [ABT-538]
- oral bioavailability (in vivo, po): low oral bioavailability

SMILES: Cc1c(O)cccc1C(=O)N[C@@H](CSc1ccccc1)[C@H](O)CN1C[C@H]2CCCC[C@H]2C[C@H]1C(=O)NC(C)(C)C [AG1343]
- oral bioavailability (in vivo, po): low oral bioavailability

SMILES: Cc1cn([C@H]2C[C@H](N=[N+]=[N-])[C@@H](CO)O2)c(=O)[nH]c1=O [AZT, azidothymidine]
- side effects [1]: severe side effects

SMILES: Nc1cccc(CN2C(=O)N(Cc3cccc(N)c3)[C@H](Cc3ccccc3)[C@H](O)[C@@H](O)[C@H]2Cc2ccccc2)c1 [DMP-450]
- oral bioavailability (in vivo, po): low oral bioavailability

SMILES: CSC[C@H](NC(=O)COc1cccc2cnccc12)C(=O)N[C@@H](Cc1ccccc1)[C@H](O)C(=O)N1CSC[C@H]1C(=O)NC(C)(C)C [KNI-272]
- oral bioavailability (oral): low oral bioavailability

SMILES: CC(C)(C)NC(=O)[C@@H]1CN(Cc2cccnc2)CCN1C[C@@H](O)C[C@@H](Cc1ccccc1)C(=O)N[C@H]1c2ccccc2C[C@H]1O [MK-639, N-(2-(R)-hydroxy-1(S)-indanyl)-2(R)-phenylmethyl-4-(S)-hydroxy-5-(1-(4-(3-pyridylmethyl)-2(S)-N'-(t-butylcarboxamido)-piperazinyl))-pentaneamide]
- oral bioavailability (in vivo, po): low oral bioavailability

SMILES: N#Cc1ccc(S(=O)(=O)Nc2cccc(C(c3c(O)c4c(oc3=O)CCCCCC4)C3CC3)c2)cc1 (stereo not shown) [U-103,017]
- oral bioavailability (oral): low oral bioavailability

SMILES: CC(C)CN(C[C@@H](O)[C@H](Cc1ccccc1)NC(=O)O[C@H]1CCOC1)S(=O)(=O)c1ccc(N)cc1 [VX-478]
- oral bioavailability (in vivo, po): low oral bioavailability

SMILES: O=c1[nH]cnc2c1ncn2[C@H]1CC[C@@H](CO)O1 [ddI, didanosine]
- effectiveness in treating HIV infection [1]: only modestly effective
- side effects [1]: severe side effects

SMILES: CC(C)(C)NC(=O)[C@@H]1C[C@@H]2CCCC[C@@H]2CN1C[C@@H](O)[C@H](Cc1ccccc1)NC(=O)[C@H](CC(N)=O)NC(=O)c1ccc2ccccc2n1 [saquinavir]
- oral bioavailability (in vivo, po): low oral bioavailability
